Test results published in patent publication US20230364021A1 (CRITITECH, INC., priority 2020, published 2023).

What was measured:
Type in all cases: physicochemical
[1] = Shake-flask solubility in organic solvent/water mixtures; settings: for Concentration of Sorafenib Found: 24 hours, 20-25° C.
Procedure: This method was conducted in acidic media. Development of a discriminating dissolution method at neutral pH (6.8 to 7.4) was pursued, as relevant for potential intra-tumoral delivery of the drug. The addition of organic solvents was used to increase the solubility of the compounds at neutral pH.
Solubility was determined by using a shake-flask method. The drug was added in excess to each solution prepared in duplicate. The vials were placed on a mechanical shaker for 24 hours at 20-25° C. After shaking, solution was removed and filtered through a 0.2 μm PTFE syringe filter and analyzed by UV/Visible spectrophotometry.

[2] = Particle size distribution (PSD) by laser diffraction, Malvern Mastersizer 3000
Procedure: (§1) Three precipitation runs (approximately 600-700 mg) were conducted on the RC612B precipitation unit, according to the examples provided on the preceding pages. Solvent was the single variable modified between each group of three precipitations. The precipitates were analyzed by laser diffraction to determine PSD, BET sorptometry to determine SSA, SEM to determine habit and support PSD and SSA data, and PXRD to determine crystalline/amorphous form.
PSD analyses were conducted on a Malvern Mastersizer™ 3000 using the Aero S dispersion unit according to the manufacturer instructions.

[3] = Specific surface area (SSA) by BET sorptometry
Procedure: As used herein, the “specific surface area” is the total surface area of the sorafenib particle per unit of sorafenib mass as measured by the Brunauer—Emmett—Teller (“BET”) isotherm (i.e.: the BET SSA). As will be understood by those of skill in the art, the SSA is determined on a per gram basis and takes into account both agglomerated and non-agglomerated sorafenib particles in the composition. The BET specific surface area test procedure is a compendial method included in both the United States Pharmaceopeia and the European Pharmaceopeia.
as §1
SSA determination analyses were conducted on a Quantachrome NOVAtouch™ LX^2 BET Sorptometer or a Porous Materials, Inc., Automated BET Sorptometer BET-202A according to the manufacturer instructions.

## CNC(=O)c1cc(Oc2ccc(NC(=O)Nc3ccc(Cl)c(C(F)(F)F)c3)cc2)ccn1 [Sorafenib, 4-(4-((((4-Chloro-3-(trifluoromethyl)phenyl)amino)carbonyl)amino)phenoxy)-N-methyl-2-pyridinecarboxamide]
[1]; Ethanol, water to organic solvent ratio 25/75
  Concentration of Sorafenib Found: 553 µg/mL
[1]; Ethanol, water to organic solvent ratio 50/50
  Concentration of Sorafenib Found: 325 µg/mL
[1]; Methanol, water to organic solvent ratio 25/75
  Concentration of Sorafenib Found: 503 µg/mL
[1]; Methanol, water to organic solvent ratio 50/50
  Concentration of Sorafenib Found: 41.4 µg/mL
[1]; Methanol, water to organic solvent ratio 75/25
  Concentration of Sorafenib Found: 2.45 µg/mL
[1]; methanol/water and ethanol/water, both solvents
  Solubility versus organic solvent concentration: concentration dependent solubility
[2]
  PSD: Volume Dv-10: 12.3 μm
[3]; listed as Raw
  SSA: 1.02 m^2/g
[3]; listed as unprocessed material
  SSA: 0.88 m^2/g
